Tests used:
Type in all cases: in vivo
[1] = test system: upland rice (Oryza sp., var. Tebonnet, RICE); experiment: Post-emerge test, crop safety; details: post-emerge, 14 days after application, rating scale 0-100
In short: (§1)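 Rating: 0–100 visual injury, 14 DAA. Application: acetone, 187 l/ha, 15–1000 g ai/ha, flat-fan track sprayer with nozzle 40–45 cm above soil or canopy. Post-emerge runs used 0.25% v/v surfactant on 2–3 leaf plants.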

[2] = test system: field corn (Zea mays L., var. Dekalb 535, CORN); experiment: Post-emerge test, crop safety; details: post-emerge, 14 days after application, rating scale 0-100
In short: as §1

[3] = test system: upland rice (Oryza sp., var. Tebonnet, RICE); experiment: Pre-emerge test, crop safety; details: pre-emerge, 14 days after application, scale 0-100
In short: (§2)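 Plants grown in 10 cm pots of sandy loam mix received acetone-dissolved compounds through a moving flat-fan nozzle. Doses ranged from 15 to 1000 g ai/ha. Pre-emerge pots were seeded one day earlier, post-emerge pots 8–21 days earlier. Fourteen days on, each pot was graded 0–100 for damage.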

[4] = test system: field corn (Zea mays L., var. Dekalb 535, CORN); experiment: Pre-emerge test, crop safety; details: pre-emerge, 14 days after application, scale 0-100
In short: as §2

[5] = test system: redroot pigweed (Amaranthus retroflexus, AMARE); experiment: Pre-emerge test, greenhouse herbicide activity screening; details: pre-emerge, 14 days after application, scale 0-100
In short: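 Compounds in acetone were track-sprayed at 187 l/ha, 15–1000 g ai/ha, onto sandy loam pots. Pre-emerge seeds were sown one day before spraying, with surface watering afterwards. Post-emerge plants were at the 2–3 leaf stage and sprayed with 0.25% v/v non-ionic surfactant. Injury was rated 0–100 at 14 days.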

[6] = test system: large crabgrass (Digitaria sanguinalis, DIGSA); experiment: Post-emerge test, greenhouse herbicide activity screening; details: post-emerge, 14 days after application, rating scale 0-100
From the text: (§3) A standard greenhouse herbicide activity screening system was used to evaluate the herbicidal efficacy and crop safety of these test compounds. Seven broadleaf weed species including redroot pigweed (Amaranthus retroflexus, AMARE, velvetleaf (Abutilon theophrasti, ABUTH), sicklepod (Cassia obtusifolia, CASOB), ivyleaf morningglory (Ipomoea hederacea, IPOHE), lambsquarters (Chenopodium album, CHEAL), common ragweed (Ambrosia artemisizfolia L., AMBEL), and cocklebur (Xanthium strumarium, XANST) were used as test species. Four grass weed species including green foxtail (Setaria viridis, SETVI), barnyardgrass (Echinochloa crus-galli, ECHCG), johnsongrass (Sorghum halepense, SORHA), and large crabgrass (Digitaria sanguinalis, DIGSA) were also used. In addition, three crop species, field corn (Zea mays L., var. Dekalb 535, CORN), soybean (Glycine max L., var. Pella 86, SOY), and is upland rice (Oryza sp., var. Tebonnet, RICE) were included.
(§4) All plants were grown in 10 cm square plastic pots which were filled with a sandy loam soil mix. For pre-emerge tests, seeds were planted one day prior to application of the test compounds. For post-emerge tests, seeds were planted 8-21 days prior to the test to allow emergence and good foliage development prior to application of the test substances. At the time of the post-emerge application, plants of all species were usually at the 2-3 leaf stage of development.
(§5) All test compounds Were dissolved in acetone and applied to the test units in a volume of 187 l /ha. Test materials were applied at rates ranging from 15 g ai/ha to 1000 g ai/ha using a track sprayer equipped with a TJ8001E even flow flat fan spray nozzle. Plants were arranged on a shelf so that the top of the canopy (post-emerge) or top of the soil surface (pre-emerge) was 40-45 cm below the nozzle. Pressurized air was used to force the test solution through the nozzle as it was mechanically advanced (via electrically driven chain drive) over the top of all test plants/pots. This application simulates a typical commercial field herbicide application.
(§6) In the post-emerge test, a commercial non-ionic surfactant was also included (0.25% v/v) to enhance wetting of the leaf surfaces of target plants. Immediately after application, test units of the pre-emerge applications were watered at the soil surface to incorporate the test materials. Subsequently, these test units were bottom-watered. Post-emerge test units were always bottom-watered.
(§7) At 14 days after application of the test materials, phytotoxicity ratings were recorded. A rating scale of 0-100 was used as previously described in Research Methods in Weed Science, 2nd edition, B. Truelove, Ed., Southern Weed Science Society, Auburn University, Auburn, Ala. 1977. Briefly, “0” corresponds to no damage and “100” corresponds to complete death of all plants in the test unit. This scale was used both to determine efficacy against weed species and damage to crop species. Herbicide activity data for various compounds of this invention, which are shown by compound No. in Tables 1-8, are shown in Tables 11 and 12.

[7] = test system: lambsquarters (Chenopodium album, CHEAL); experiment: as above; details: post-emerge, 14 days after application, rating scale 0-100
From the text: as §3, §4, §5, §6, §7

[8] = test system: ivyleaf morningglory (Ipomoea hederacea, IPOHE); experiment: as above; details: post-emerge, 14 days after application, rating scale 0-100
From the text: as §3, §4, §5, §6, §7

[9] = test system: sicklepod (Cassia obtusifolia, CASOB); experiment: as above; details: post-emerge, 14 days after application, rating scale 0-100
From the text: as §3, §4, §5, §6, §7

[10] = test system: barnyardgrass (Echinochloa crus-galli, ECHCG); experiment: as above; details: post-emerge, 14 days after application, rating scale 0-100
From the text: as §3, §4, §5, §6, §7

[11] = test system: redroot pigweed (Amaranthus retroflexus, AMARE); experiment: as above; details: post-emerge, 14 days after application, rating scale 0-100
From the text: as §3, §4, §5, §6, §7

[12] = test system: green foxtail (Setaria viridis, SETVI); experiment: as above; details: post-emerge, 14 days after application, rating scale 0-100
From the text: as §3, §4, §5, §6, §7

[13] = test system: velvetleaf (Abutilon theophrasti, ABUTH); experiment: as above; details: post-emerge, 14 days after application, rating scale 0-100
From the text: as §3, §4, §5, §6, §7

[14] = test system: large crabgrass (Digitaria sanguinalis, DIGSA); experiment: Pre-emerge test, greenhouse herbicide activity screening; details: pre-emerge, 14 days after application, scale 0-100
From the text: as §3, §4, §5, §6, §7

[15] = test system: lambsquarters (Chenopodium album, CHEAL); experiment: as above; details: pre-emerge, 14 days after application, scale 0-100
From the text: as §3, §4, §5, §6, §7

[16] = test system: ivyleaf morningglory (Ipomoea hederacea, IPOHE); experiment: as above; details: pre-emerge, 14 days after application, scale 0-100
From the text: as §3, §4, §5, §6, §7

[17] = test system: sicklepod (Cassia obtusifolia, CASOB); experiment: as above; details: pre-emerge, 14 days after application, scale 0-100
From the text: as §3, §4, §5, §6, §7

[18] = test system: barnyardgrass (Echinochloa crus-galli, ECHCG); experiment: as above; details: pre-emerge, 14 days after application, scale 0-100
From the text: as §3, §4, §5, §6, §7

[19] = test system: green foxtail (Setaria viridis, SETVI); experiment: as above; details: pre-emerge, 14 days after application, scale 0-100
From the text: as §3, §4, §5, §6, §7

[20] = test system: velvetleaf (Abutilon theophrasti, ABUTH); experiment: as above; details: pre-emerge, 14 days after application, scale 0-100
From the text: as §3, §4, §5, §6, §7

`COc1c(Cl)cc(F)c(-n2c(=O)cc(C(F)(F)F)n(C)c2=O)c1NC(=O)CCc1cc(C)ccc1C` [2-130] was tested, and the “RICE phytotoxicity rating (crop damage)” value ([1]; 63 g ai/ha) was 20, the “RICE phytotoxicity rating (crop damage)” value ([1]; 250 g ai/ha) was 25 and the “CORN phytotoxicity rating (crop damage)” value ([2]; 63 g ai/ha) was 10. The “CORN phytotoxicity rating (crop damage)” value ([2]; 250 g ai/ha) was 30, the “phytotoxicity rating RICE (crop damage)” value ([3]; 63 g ai/ha) was 0 and the “phytotoxicity rating RICE (crop damage)” value ([3]; 250 g ai/ha) was 15. For the same compound, the “phytotoxicity rating CORN (crop damage)” value ([4]; 63 g ai/ha) was 0, the “phytotoxicity rating CORN (crop damage)” value ([4]; 250 g ai/ha) was 5 and the “phytotoxicity rating AMARE” value ([5]; 63 g ai/ha) was 40. The “phytotoxicity rating AMARE” value ([5]; 250 g ai/ha) was 100, the DIGSA phytotoxicity rating ([6]; 63 g ai/ha) was 30 and the DIGSA phytotoxicity rating ([6]; 250 g ai/ha) was 50. It also gave a CHEAL phytotoxicity rating ([7]; 63 g ai/ha) of 100, a CHEAL phytotoxicity rating ([7]; 250 g ai/ha) of 100 and an IPOHE phytotoxicity rating ([8]; 63 g ai/ha) of 100. It also gave an IPOHE phytotoxicity rating ([8]; 250 g ai/ha) of 100, a CASOB phytotoxicity rating ([9]; 63 g ai/ha) of 80 and a CASOB phytotoxicity rating ([9]; 250 g ai/ha) of 70. For the same compound, the ECHCG phytotoxicity rating ([10]; 63 g ai/ha) was 50, the ECHCG phytotoxicity rating ([10]; 250 g ai/ha) was 60 and the AMARE phytotoxicity rating ([11]; 63 g ai/ha) was 100. It also gave an AMARE phytotoxicity rating ([11]; 250 g ai/ha) of 100, an SETVI phytotoxicity rating ([12]; 63 g ai/ha) of 60 and an SETVI phytotoxicity rating ([12]; 250 g ai/ha) of 70. The ABUTH phytotoxicity rating ([13]; 63 g ai/ha) was 100, the ABUTH phytotoxicity rating ([13]; 250 g ai/ha) was 100 and the “phytotoxicity rating DIGSA” value ([14]; 63 g ai/ha) was 20. For the same compound, the “phytotoxicity rating DIGSA” value ([14]; 250 g ai/ha) was 90, the “phytotoxicity rating CHEAL” value ([15]; 63 g ai/ha) was 60 and the “phytotoxicity rating CHEAL” value ([15]; 250 g ai/ha) was 100. The “phytotoxicity rating IPOHE” value ([16]; 63 g ai/ha) was 0, the “phytotoxicity rating IPOHE” value ([16]; 250 g ai/ha) was 30 and the “phytotoxicity rating CASOB” value ([17]; 63 g ai/ha) was 0. For the same compound, the “phytotoxicity rating CASOB” value ([17]; 250 g ai/ha) was 40, the “phytotoxicity rating ECHCG” value ([18]; 63 g ai/ha) was 0 and the “phytotoxicity rating ECHCG” value ([18]; 250 g ai/ha) was 30. For the same compound, the “phytotoxicity rating SETVI” value ([19]; 63 g ai/ha) was 50, the “phytotoxicity rating SETVI” value ([19]; 250 g ai/ha) was 100 and the “phytotoxicity rating ABUTH” value ([20]; 63 g ai/ha) was 100. The “phytotoxicity rating ABUTH” value ([20]; 250 g ai/ha) was 100.

Reference: patent publication US6355799B1, “Substituted benzene compounds, process for their preparation, and herbicidal and defoliant compositions containing them” (ISK Americas Incorporated, priority 1997, dated 2002)
